Laboratory results published in article PMC4360378 (Journal of Medicinal Chemistry, 2015).

Assays:
yeast Rtt109–Vps75 = target: T1, yeast Rtt109–Vps75 (Saccharomyces cerevisiae, UniProt Q07794); assay: [3H]-acetyl-CoA HAT assay, Rtt109; assay type: biochemical; conditions: 1 mM DTT; results similar versus Rtt109-Vps75, p300, and Gcn5
T1 sequence (Q07794 1-436): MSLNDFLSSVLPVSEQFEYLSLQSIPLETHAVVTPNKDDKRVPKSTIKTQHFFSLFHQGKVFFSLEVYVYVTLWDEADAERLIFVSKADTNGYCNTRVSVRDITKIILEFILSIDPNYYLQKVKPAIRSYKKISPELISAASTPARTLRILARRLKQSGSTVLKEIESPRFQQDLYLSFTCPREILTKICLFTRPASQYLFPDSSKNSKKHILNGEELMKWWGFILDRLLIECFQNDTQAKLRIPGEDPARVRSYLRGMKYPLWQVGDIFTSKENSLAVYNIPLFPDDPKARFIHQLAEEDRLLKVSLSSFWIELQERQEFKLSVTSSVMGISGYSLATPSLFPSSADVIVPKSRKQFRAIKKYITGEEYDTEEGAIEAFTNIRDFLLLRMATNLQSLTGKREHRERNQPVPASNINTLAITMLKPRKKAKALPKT
T1 sequence (P53853 1-264 partner): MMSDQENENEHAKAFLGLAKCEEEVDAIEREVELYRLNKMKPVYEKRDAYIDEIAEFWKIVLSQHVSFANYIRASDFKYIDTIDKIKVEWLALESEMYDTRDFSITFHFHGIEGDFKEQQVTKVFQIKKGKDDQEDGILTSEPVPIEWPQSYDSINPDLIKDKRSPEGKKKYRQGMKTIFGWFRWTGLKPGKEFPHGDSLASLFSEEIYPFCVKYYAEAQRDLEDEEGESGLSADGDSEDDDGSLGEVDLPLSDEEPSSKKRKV

human La antigen = target: T2, human La antigen (Homo sapiens, UniProt P05455); assay: ALARM NMR; assay type: binding; conditions: for ALARM NMR reactivity: 200 μM test compounds, absence of DTT, prevented by 20 mM DTT; for La protein conformation in ALARM NMR: without the inclusion of DTT
T2 sequence (P05455 100-324): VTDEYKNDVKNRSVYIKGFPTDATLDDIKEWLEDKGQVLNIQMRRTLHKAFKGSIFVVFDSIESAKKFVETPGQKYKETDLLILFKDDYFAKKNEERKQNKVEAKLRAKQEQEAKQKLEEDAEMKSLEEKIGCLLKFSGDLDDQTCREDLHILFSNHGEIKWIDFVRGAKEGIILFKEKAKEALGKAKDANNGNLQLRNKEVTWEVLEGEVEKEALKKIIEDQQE

yeast Vps75 = target: T3, yeast Vps75 (Saccharomyces cerevisiae, UniProt P53853); assay: Protein mass spectrometry; assay type: binding; conditions: 100 μM compound, 10 μM protein, 30 °C, 60 min; LC–MS/MS
T3 sequence (P53853 1-264): T1 sequence (P53853 1-264 partner)
T3 sequence (Q07794 1-436 partner): T1 sequence (Q07794 1-436)

[1] = Stability in HTS buffer by UPLC–MS; assay type: physicochemical; conditions: HTS buffer pH 8.0, UPLC–MS
yeast Rtt109 = target: T4, yeast Rtt109 (Saccharomyces cerevisiae, UniProt Q07794); assay: Protein mass spectrometry; assay type: binding; conditions: 100 μM compound, 10 μM protein, 30 °C, 60 min; LC–MS/MS
T4 sequence (Q07794 1-436): T1 sequence (Q07794 1-436)
T4 sequence (P53853 1-264 partner): T1 sequence (P53853 1-264 partner)

Row | (+) DTT IC50 effect (yeast Rtt109–Vps75) | ALARM NMR reactivity (human La antigen) | SMILES | also measured
1 | increase | covalently modify cysteines | O=C(O)CCSc1cc(NS(=O)(=O)c2ccc(Br)cc2)c2ccccc2c1O [6a] | La protein conformation in ALARM NMR (human La antigen): strongly perturbed; Peptide adduct detected, Vps75 (yeast Vps75): forms a detectable adduct with mono-oxidized C21
2 | increase |  | O=S(=O)(Nc1cc(Cl)c(O)c2ccccc12)c1ccc(Br)cc1 [6e] | 
3 | increase |  | O=C(O)CSc1cc(NS(=O)(=O)c2ccc(Br)cc2)c2ccccc2c1O [6y] | 
4 | increase |  | O=C(O)CSc1cc(NS(=O)(=O)c2ccc(C(=O)O)cc2)c2ccccc2c1O [6c] | 
5 |  | covalently modify cysteines | O=S(=O)(Nc1cc(Sc2ncn[nH]2)c(O)c2ccccc12)c1ccc2ccccc2c1 [6b] | La protein conformation in ALARM NMR (human La antigen): strongly perturbed

Continued, compound first:

Row | SMILES | (+) DTT IC50 effect (yeast Rtt109–Vps75) | ALARM NMR reactivity (human La antigen) | also measured
6 | O=[N+]([O-])c1c(Sc2nnnn2-c2ccccc2)cc(Cl)c2nonc12 [2e] | increase |  | 
7 | O=[N+]([O-])c1cc(Br)c2nsnc2c1Sc1ncnc2[nH]cnc12 [2a] | increase | covalently modify cysteines | stability in HTS buffer [1]: stable
8 | O=C(O)c1ccc(-n2nnnc2SC2=CS(=O)(=O)c3ccccc32)cc1 [1a] | increase | covalently modify cysteines | Peptide adduct detected, Rtt109 (yeast Rtt109): forms a detectable adduct with C94
9 | O=C1CC(Sc2nnc(-c3ccccc3O)o2)C(=O)N1c1ccc(Br)cc1 (stereo not shown) [4a] | increase | covalently modify cysteines | stability in HTS buffer [1]: thiol leaving groups (e.g., 4a″) were detected
10 | CCN(CC)c1ccc2c(C)c(-c3ccc(N4C(=O)C=CC4=O)cc3)c(=O)oc2c1 [CPM, N-[4-(7-diethylamino-4-methylcoumarin-3-yl)phenyl]maleimide, reference compound] | increase |  | 
11 | OC(Cn1cncn1)(Cn1cncn1)c1ccc(F)cc1F [fluconazole, reference compound] | none |  | 
12 | CNc1nc(-c2ccccc2)[n+](-c2ccccc2)s1.[Cl-] [3a] |  | covalently modify cysteines | 
